Data: EP4623912A1, “A METHOD FOR DEFATTENING A STEATOTIC LIVER EX VIVO” (ETH Zurich, priority 2024, dated 2025)

Legend:
[1] = Precipitation of DMSO solution on mixing with water; type: physicochemical; conditions: dissolved in DMSO, not circulated
C57BL/6N male mice = test: Indirect calorimetry in HFD-fed mice; type: in vivo, mouse; conditions: HFD mixed with UCB9608 (5 mg/kg) 3 weeks, vs DMSO
Method: 8-10 weeks old C57BL/6N male mice were fed on HFD mixing with DMSO or UCB9608 (5 mg/kg) for 3 weeks before indirect calorimetry measurements were performed with Phenomaster (TSE systems) according to the manufacturer's instructions. Animals were single caged and adapted to the metabolic cage for 48h prior to metabolic recording. The energy expenditure between both groups was analyzed via ANCOVA method and RER was analyzed via two-way ANOVA method.

[2] = system: male C57BL/6N wild-type mice; test: HFD-induced hepatic steatosis (NAFLD) mouse model; type: in vivo; conditions: HFD 12 weeks
Method: Male mice were used for NAFLD induction via feeding on HFD. ROSA26-LSL-spCas9 mice were injected with AAV-U6-Cu/7 gRNAs-TBG-Cre and AAV-U6-Fbxw8 gRNAs-TBG-Cre virus pools at a dose of 3×10^11 genome copies/mouse and fed in HFD for 12 weeks and livers were harvested after 6 hours fasting. To study PI4KB in NAFLD progression, male ROSA26-LSL-spCas9 mice were fed in HFD for 12 weeks to induce fatty liver before induction of hepatocyte specific depletion of PI4KB via intravenous administration of AAV8. After another 8 weeks, mice were dissected to harvest liver after 6 hours fasting. Likewise, male C57BL/6N wild-type mice and liver specific Atgl knockout mice (AtgILKO) were challenged with HFD for 12 weeks to induce fatty liver prior to administration of UCB9608 mixed in HFD (5 mg/kg) for another 8 weeks. Then the mice were dissected to harvest tissues and sample blood after 6 hours fasting Atgl floxed mice (The Jackson Lab strain) were crossed with Albumin-Cre (The Jackson Lab strain) and Adip-CreERT2 strains to obtain Alb-Atgfl^fl/fl and AdipcreERT2-Atgl^fl/fl mice (Sitnick,M.T. et al, Diabetes 62, (2013)), which deplete ATGL protein in the liver and the adipose depots (induced after tamoxifen gavage), respectively. Male mice from both strains were injected with 2-DG (2 g/kg BW) to induce glucose deprivation for 6 hours prior to tissue and blood harvesting.
Adipose depots, liver pieces, differentiated iBAs, HepG2, HEK293T and HEK293-AAV cell types were homogenized in RIPA buffer (50 mM Tris-HCl pH 7.4, 150 mM NaCl, 2 mM EDTA, 1.0% Triton X100, 0.5% sodium deoxycholate) with protease inhibitors (Complete, Roche) and phosphatase inhibitors (Halt phosphatase inhibitor cocktail, ThermoFisher). The homogenates were centrifuged at 12,000×g for 10 min at 4°C to remove debris and collect whole cell extract (WCE). The concentration of WCE was determined by DC Protein Assay (Bio-Rad). After boiling the sample with Lämmeli buffer at 95°C for 5 min, equal amount of proteins was loaded and separated on 12% SDS-PAGE. The proteins were transferred to nitrocellulose membrane and blotted by ATGL (1:1000, Cell Signaling), CGI-58 (1:1000, Proteintech), phospho-HSL(Ser660) (1:1000, Cell Signaling), PLIN1 (1:1000, Cell Signaling), HSL (1:1000, Cell Signaling), γ-tubulin (1:10000, Sigma), FLAG (1:10000, Sigma; 1:1000, Cell Signaling), MGL (1:1000, Abcam), HA (1:1000, Cell signaling), FBXW8 (1:100, Santa Cruz; 1:1000, Sigma), CUL7 (1:100, Santa Cruz), HSP90 (1:1000, Cell Signaling), K48 polyubiquitin (1:1000, Cell signaling), PI4KB (1:1000, Sigma), SACM1L (1:1000, Sigma), AKT1 (1:1000, Cell Signaling), phospho-AKT1(Ser473) (1:1000, Cell Signaling), TGN46 (1:1000, Abcam), MAOA (1:1000, Abcam), PLIN2 (1:1000, Abcam), PMP70 (1:10000, Sigma), Calnexin (1:1000, Cell Signaling), ARF1 (1:1000, Invitrogen), GAPDH (1:1000, Cell Signaling), RAB7 (1:1000, Cell Signaling), alpha 1 Sodium Potassium ATPase (1:1000, Abcam), Cleaved Caspase-3 (1:1000, Cell Signaling), phospho-AMPKα (Thr172) (1:1000, Cell Signaling), AMPKα (1:1000, Cell Signaling) and GM130 (1:1000, Proteintech). […]
Plasma collected from mice under different conditions was used to determine levels of lipolysis and liver injury. FFA levels were measured via NEFA assay kit (Wako NEFA kit). TG levels were determined via TG assay kit (Roche Trig/GB reagent). […] The absorbance was monitored using Synergy Gen5 Platereader.
Weight of liver pieces (50-100 mg) was recorded before homogenization by 1 mL isopropanol per 50 mg tissue. […]

[3] = system: mouse model with organ engraftment; conditions: in vivo; cited from earlier work
[4] = then UCB9608 in HFD (5 mg/kg) 8 weeks, vs DMSO

## COc1ccc(NC(=O)N2CCN(c3nc(N)nc4c3cnn4C)[C@@H](C)C2)c(C)c1 [UCB9608]
[1]
  behaviour of DMSO solution mixed with water: precipitated
C57BL/6N male mice
  energy expenditure: higher
[2]; [4]
  ATGL protein levels in the gWAT: significantly greater
  ATGL protein levels in the iBAT: significantly greater
  ATGL protein levels in the liver: significantly greater
[2]; then UCB9608 in HFD (5 mg/kg) 8 weeks, requires ATGL in the liver (Fig. 6h)
  hepatic steatosis (hepatic TG levels): substantially attenuated
[2]; then UCB9608 mixed in HFD (5 mg/kg) 8 weeks, vs DMSO (Fig. 6g)
  plasma FFA levels: significantly increased
[3]
  efficacy in the mouse model with organ engraftment: effective
